Experimental data reported in ChEMBL document CHEMBL3286254, “Structure-guided discovery of 1,3,5 tri-substituted benzenes as potent and selective matriptase inhibitors exhibiting in vivo antitumor efficacy” (Bioorg Med Chem, 2014).

What was measured:
[1] = molecular target: T1, Suppressor of tumorigenicity 14 protein (Homo sapiens, UniProt Q9Y5Y6); assay: Inhibition of recombinant matriptase (unknown origin) using Boc-Gln-Ala-Arg-7-amido-4-methyl coumarin hydrobromide
T1 sequence (Q9Y5Y6 whole entry): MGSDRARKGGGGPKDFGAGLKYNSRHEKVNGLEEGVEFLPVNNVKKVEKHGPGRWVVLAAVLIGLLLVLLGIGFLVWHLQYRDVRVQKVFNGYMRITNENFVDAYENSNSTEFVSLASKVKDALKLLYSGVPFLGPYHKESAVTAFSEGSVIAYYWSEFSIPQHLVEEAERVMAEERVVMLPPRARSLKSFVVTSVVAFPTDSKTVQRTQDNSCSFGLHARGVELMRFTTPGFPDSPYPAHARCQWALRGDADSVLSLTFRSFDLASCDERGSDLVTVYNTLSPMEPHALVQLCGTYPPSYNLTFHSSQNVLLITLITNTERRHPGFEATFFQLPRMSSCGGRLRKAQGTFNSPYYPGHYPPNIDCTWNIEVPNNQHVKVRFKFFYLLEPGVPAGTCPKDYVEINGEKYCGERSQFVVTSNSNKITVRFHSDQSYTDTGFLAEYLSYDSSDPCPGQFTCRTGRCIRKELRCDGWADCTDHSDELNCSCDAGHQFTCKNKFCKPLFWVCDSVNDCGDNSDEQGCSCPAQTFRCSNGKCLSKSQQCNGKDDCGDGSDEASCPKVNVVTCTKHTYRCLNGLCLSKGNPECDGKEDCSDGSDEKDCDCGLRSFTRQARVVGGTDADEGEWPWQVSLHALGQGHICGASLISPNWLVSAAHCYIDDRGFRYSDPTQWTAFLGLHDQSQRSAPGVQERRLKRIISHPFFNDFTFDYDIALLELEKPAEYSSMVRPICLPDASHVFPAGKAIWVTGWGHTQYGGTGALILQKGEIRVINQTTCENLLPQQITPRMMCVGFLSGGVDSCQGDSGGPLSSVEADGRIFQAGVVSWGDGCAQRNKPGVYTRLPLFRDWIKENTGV

Coagulation factor X = Coagulation factor X (Bos taurus, UniProt P00743); assay: Inhibition of bovine plasma factor 10a using CH3OCO-D-CHA-Gly-Arg-pNA.AcoH substrate
Prothrombin = Prothrombin (Homo sapiens, UniProt P00734); assay: Inhibition of human thrombin using Boc-Gln-Ala-Arg-7-amido-4-methyl coumarin hydrobromide
Trypsin = Trypsin (Homo sapiens, UniProt P07477+P07478+P35030); assay: Inhibition of human pancreas Trypsin using Boc-Gln-Ala-Arg-7-amido-4-methyl coumarin hydrobromide; assay type: protein assay
Plasminogen = Plasminogen (Homo sapiens, UniProt P00747); assay: Inhibition of human plasmin using pyroGlu-Phe-Lys-pNA.HCl
DU-145 [2] = assay: Antiinvasion activity in human DU145 cells assessed as inhibition of FBS-induced cell invaded to lower surface at 10 uM for 3 days by matrigel assay; assay type: functional; conditions: DU-145, 72 h
[3] = Antiinvasion activity in human LNCaP-C42B4 cells assessed as inhibition of FBS-induced cell invaded to lower surface at 10 uM for 3 days by matrigel assay; assay type: functional; conditions: LNCaP-C42B4, 72 h
PC-3 [4] = assay: Antiinvasion activity in human PC3 cells assessed as inhibition of FBS-induced cell invaded to lower surface at 10 uM for 3 days by matrigel assay; assay type: functional; conditions: PC-3, 72 h
DU-145 [5] = assay: Cytotoxicity against human DU145 cells assessed as cell survival at 10 uM after 72 hrs by calcein AM assay; assay type: functional; conditions: DU-145, 72 h, read-out: Activity
[6] = Cytotoxicity against human LNCaP-C42B4 cells assessed as cell survival at 10 uM after 72 hrs by calcein AM assay; assay type: functional; conditions: LNCaP-C42B4, 72 h, read-out: Activity
PC-3 [7] = assay: Cytotoxicity against human PC3 cells assessed as cell survival at 10 uM after 72 hrs by calcein AM assay; assay type: functional; conditions: PC-3, 72 h, read-out: Activity

Chain of Coagulation factor X (P00743 41-180 limits assumed): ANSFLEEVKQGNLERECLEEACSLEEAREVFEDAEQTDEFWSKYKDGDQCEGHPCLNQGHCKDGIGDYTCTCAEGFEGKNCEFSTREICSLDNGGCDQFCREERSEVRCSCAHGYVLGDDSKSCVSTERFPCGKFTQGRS
Chain of Coagulation factor X (P00743 234-492 limits assumed): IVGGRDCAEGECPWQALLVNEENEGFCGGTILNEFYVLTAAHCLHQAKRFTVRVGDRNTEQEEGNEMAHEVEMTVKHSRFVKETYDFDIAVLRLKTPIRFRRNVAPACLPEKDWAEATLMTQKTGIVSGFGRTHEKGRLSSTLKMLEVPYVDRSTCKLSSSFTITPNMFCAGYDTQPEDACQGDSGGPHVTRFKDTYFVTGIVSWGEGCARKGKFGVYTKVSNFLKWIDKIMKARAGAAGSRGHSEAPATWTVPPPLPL
Chain of Plasminogen (P00747 97-580 limits assumed): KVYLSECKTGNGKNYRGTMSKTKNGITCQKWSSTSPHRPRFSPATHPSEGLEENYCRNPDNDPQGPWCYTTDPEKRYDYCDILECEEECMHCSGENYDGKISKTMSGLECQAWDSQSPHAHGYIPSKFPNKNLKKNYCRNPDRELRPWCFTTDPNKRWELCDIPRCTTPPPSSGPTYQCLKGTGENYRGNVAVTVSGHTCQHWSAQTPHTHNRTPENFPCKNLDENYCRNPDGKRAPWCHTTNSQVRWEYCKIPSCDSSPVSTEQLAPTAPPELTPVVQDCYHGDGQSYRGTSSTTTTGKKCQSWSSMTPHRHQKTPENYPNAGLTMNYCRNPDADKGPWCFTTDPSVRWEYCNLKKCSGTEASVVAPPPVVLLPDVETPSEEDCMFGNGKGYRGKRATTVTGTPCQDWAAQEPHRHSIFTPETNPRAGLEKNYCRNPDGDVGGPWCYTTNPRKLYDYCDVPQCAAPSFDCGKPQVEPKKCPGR
Chain of Plasminogen (P00747 581-810 limits assumed): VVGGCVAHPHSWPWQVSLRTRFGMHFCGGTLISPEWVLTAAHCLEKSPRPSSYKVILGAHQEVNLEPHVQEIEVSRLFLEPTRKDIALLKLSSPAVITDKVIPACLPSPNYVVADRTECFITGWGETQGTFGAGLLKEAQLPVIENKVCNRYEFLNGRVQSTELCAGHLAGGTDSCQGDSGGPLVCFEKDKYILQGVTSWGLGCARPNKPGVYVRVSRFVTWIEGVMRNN

Row | SMILES | Ki [1] [nM] | Ki (Coagulation factor X) [nM] | Ki (Prothrombin) [nM] | Ki (Trypsin) [nM] | Ki (Plasminogen) [nM] | inhibition at 10 µM (DU-145 [2]) [%] | inhibition at 10 µM [3] [%] | inhibition at 10 µM (PC-3 [4]) [%] | viability at 10 µM (DU-145 [5]) [%] | viability at 10 µM [6] [%] | viability at 10 µM (PC-3 [7]) [%]
1 | N=C(N)c1ccc(Oc2ccc(Oc3ccc(C(=N)N)cc3)cc2)cc1 | 200 |  |  |  |  |  |  |  |  |  | 
2 | N=C(N)c1ccc(Oc2cc(Oc3ccc(C(=N)N)cc3)cc(C(N)=O)c2)cc1 | 1620 | 785 | 1060 | 640 |  |  |  |  |  |  | 
3 | N=C(N)c1ccc(Oc2cc(Oc3ccc(C(=N)N)cc3)cc(C(=O)NC3CCCCC3)c2)cc1 | 592 | 190 | 1640 | 179 | 2390 |  |  |  |  |  | 
4 | N=C(N)c1ccc(Oc2cc(Oc3ccc(C(=N)N)cc3)cc(C(=O)NCC3CCCCC3)c2)cc1 | 411 | 73 | 2410 | 571 | 2160 |  |  |  |  |  | 
5 | CC1CCC(NC(=O)c2cc(Oc3ccc(C(=N)N)cc3)cc(Oc3ccc(C(=N)N)cc3)c2)CC1 (centres undefined) | 770 | 282 | 744 | 253 | 3610 |  |  |  |  |  | 
6 | N=C(N)c1ccc(Oc2cc(Oc3ccc(C(=N)N)cc3)cc(C(=O)NC3CCC(O)CC3)c2)cc1 (centres undefined) | 301 | 538 | 1240 |  |  |  |  |  |  |  | 
7 | N=C(N)c1ccc(Oc2cc(Oc3ccc(C(=N)N)cc3)cc(C(=O)N3CCC(CCN)CC3)c2)cc1 | 94 | 1290 | 4060 | 545 |  | 62 | 61 | 54 | 100 | 100 | 93
8 | CCOC(=O)N1CCC(NC(=O)c2cc(Oc3ccc(C(=N)N)cc3)cc(Oc3ccc(C(=N)N)cc3)c2)CC1 | 1850 | 1030 |  | 471 | 2630 |  |  |  |  |  | 
9 | N=C(N)c1ccc(Oc2cc(Oc3ccc(C(=N)N)cc3)cc(C(=O)N3CCC(C(=O)O)CC3)c2)cc1 |  |  |  | 718 |  |  |  |  |  |  | 
10 | N=C(N)c1ccc(Oc2cc(Oc3ccc(C(=N)N)cc3)cc(C(=O)N3CCC4CCCCC4C3)c2)cc1 (centres undefined) | 305 | 336 | 501 | 232 | 1530 | 45 | 15 | 47 | 78 | 79 | 87
11 | N=C(N)c1ccc(Oc2cc(Oc3ccc(C(=N)N)cc3)cc(C(=O)N3CCc4ccccc4C3)c2)cc1 | 730 | 273 | 1560 | 225 | 3850 |  |  |  |  |  | 
12 | N=C(N)c1ccc(Oc2cc(Oc3ccc(C(=N)N)cc3)cc(C(=O)Nc3ccc(F)cc3)c2)cc1 | 591 | 1880 | 2100 | 1636 | 2670 |  |  |  |  |  | 
13 | CC1CCC(C(=O)Nc2cc(Oc3ccc(C(=N)N)cc3)cc(Oc3ccc(C(=N)N)cc3)c2)CC1 (centres undefined) | 545 | 743 | 2340 | 516 | 1200 |  |  |  |  |  | 
14 | N=C(N)c1ccc(Oc2cc(NC(=O)C3CCN(CCO)CC3)cc(Oc3ccc(C(=N)N)cc3)c2)cc1 | 18 | 1160 | 4200 | 1468 |  |  |  |  |  |  | 
15 | N=C(N)c1ccc(Oc2cc(Oc3ccc(N)cc3)cc(C(=O)N[C@H]3CC[C@H](N)CC3)c2)cc1 | 1130 |  |  | > 3000 |  |  |  |  |  |  | 
16 | N=C(N)c1ccc(Oc2cc(Oc3ccc(C(N)=O)cc3)cc(C(=O)N[C@H]3CC[C@H](N)CC3)c2)cc1 | 824 |  | 3540 | > 3000 |  |  |  |  |  |  | 
17 | N=C(N)c1ccc(COc2cc(Oc3ccc(C(=N)N)cc3)cc(C(=O)N[C@H]3CC[C@H](N)CC3)c2)cc1 | 10 |  | 2810 | 1868 |  |  |  |  |  |  | 
18 | N=C(N)c1ccc(Oc2cc(Oc3ccc(NC(=O)CCN)cc3)cc(C(=O)N[C@H]3CC[C@H](N)CC3)c2)cc1 | 116 | 3580 | 3250 | > 3000 |  |  |  |  |  |  | 
19 | N=C(N)c1ccc(Oc2cc(OCc3ccc(Cl)cc3)cc(C(=O)N[C@H]3CC[C@H](N)CC3)c2)cc1 | 470 |  |  |  |  |  |  |  |  |  | 
20 | N=C(N)c1ccc(Oc2cc(OCc3ccc(Br)cc3)cc(C(=O)N[C@H]3CC[C@H](N)CC3)c2)cc1 | 260 | 2090 | 3970 | 2064 |  | 61 | 76 | 51 | 78 | 65 | 93
21 | NCc1ccc(Oc2cc(Oc3ccc(CN)cc3)cc(C(=O)N[C@H]3CC[C@H](N)CC3)c2)cc1 | 1700 |  |  | 3850 |  |  |  |  |  |  | 
22 | N=C(N)c1cccc(COc2cc(OCc3cccc(C(=N)N)c3)cc(C(=O)N[C@H]3CC[C@H](N)CC3)c2)c1 | 3 | 157 | 1290 | 901 |  |  |  |  |  |  | 
23 | N=C(N)c1cccc(C[C@@H](NS(=O)(=O)c2cccc(C3CCC(N)=NC3)c2)C(=O)N2CCC(CCN)CC2)c1 (some centres undefined) | 0.08 |  |  |  |  |  |  |  |  |  | 

Continued by falling Ki [1], values first:

Row | Ki [1] [nM] | Ki (Coagulation factor X) [nM] | Ki (Prothrombin) [nM] | Ki (Trypsin) [nM] | Ki (Plasminogen) [nM] | SMILES | inhibition at 10 µM (DU-145 [2]) [%] | inhibition at 10 µM [3] [%] | inhibition at 10 µM (PC-3 [4]) [%] | viability at 10 µM (DU-145 [5]) [%] | viability at 10 µM [6] [%] | viability at 10 µM (PC-3 [7]) [%]
24 | 2030 |  |  | > 3000 |  | N=C(N)c1ccc(Oc2cc(Oc3ccc(N)nc3)cc(C(=O)N[C@H]3CC[C@H](N)CC3)c2)cc1 |  |  |  |  |  | 
25 | 1980 | 1160 | 4850 | 1388 |  | N=C(N)c1ccc(Oc2cc(NS(=O)(=O)c3ccc(F)cc3)cc(Oc3ccc(C(=N)N)cc3)c2)cc1 |  |  |  |  |  | 
26 | 1790 | 876 |  | 3000 |  | N=C(N)c1ccc(Oc2cc(NS(=O)(=O)c3ccc4ccccc4c3)cc(Oc3ccc(C(=N)N)cc3)c2)cc1 |  |  |  |  |  | 
27 | 1180 | 920 | 2850 | 1550 |  | N=C(N)c1ccc(Oc2cc(Oc3ccc(C(=N)N)cc3)cc(C(=O)NCC3CCC(O)CC3)c2)cc1 (centres undefined) |  |  |  |  |  | 
28 | 1060 | 851 | 2820 | 534 |  | N=C(N)c1ccc(Oc2cc(N)cc(Oc3ccc(C(=N)N)cc3)c2)cc1 |  |  |  |  |  | 
29 | 793 | 3680 | 3980 | > 3000 |  | N=C(N)c1ccc(Oc2cc(OCc3ccc(Br)nc3)cc(C(=O)N[C@H]3CC[C@H](N)CC3)c2)cc1 |  |  |  |  |  | 
30 | 204 | 640 | 1780 |  |  | N=C(N)c1ccc(Oc2cc(Oc3ccc(C(=N)N)cc3)cc(C(=O)NC3CCN(CCO)CC3)c2)cc1 |  |  |  |  |  | 
31 | 141 | 415 | 1280 | 1035 |  | N=C(N)c1ccc(Oc2cc(Oc3ccc(C(=N)N)cc3)cc(C(=O)NC3CCN(CCCN)CC3)c2)cc1 |  |  |  |  |  | 
32 | 23 | 1560 | 1640 | 1022 |  | N=C(N)c1ccc(COc2cc(OCc3ccc(C(=N)N)cc3)cc(C(=O)N[C@H]3CC[C@H](N)CC3)c2)cc1 |  |  |  |  |  | 
33 | 18 | 62 | 2530 | 1338 | 2410 | N=C(N)c1ccc(Oc2cc(NC(=O)C3CCN(CCN)CC3)cc(Oc3ccc(C(=N)N)cc3)c2)cc1 |  |  |  |  |  | 
34 | 6 | 1140 | 2680 | 1541 |  | N=C(N)c1ccc(Oc2cc(OCc3cccc(C(=N)N)c3)cc(C(=O)N[C@H]3CC[C@H](N)CC3)c2)cc1 |  |  |  |  |  | 
